We go through 7 compounds from patent publication US20100203033A1, “Kits, formulations and solutions having enzymatically- permissive amounts of visualization agents and uses thereof” (priority 2007, published 2010).

Data set [1] concerns the target T1, thrombin (Homo sapiens, UniProt P00734). Briefly: Drop test model: migration length of fibrin sealant on a slanted surface (clotting kinetics). It counts as biochemical. Details: 5 ml of a thrombin solution 5 folds diluted (final: 200 IU/ml). The method, then: (§1) Human thrombin was mixed with different dyes to final dye concentrations of 0.005-0.2%. The influence of dyes on clotting kinetics was tested using the drop test model. Briefly, measurements of fibrin clotting kinetics were performed on an inclined plane in a device powered by a Nitrogen pressure of 7×10^5 Pa. In each experiment 5 ml of Biological Active Component (BAC) and 5 ml of a thrombin solution 5 folds diluted (final: 200 IU/ml) (in 40 mM CaCl2) were pumped into a separate syringe. […] These two solutions were released (about ⅛ of each) simultaneously, and a mixed drop falls onto a slanted surface. The drop leaks down the slope until a clot is formed. The distance traveled by the drops was recorded on a millimetric paper sheet placed on the slanted surface. […] The migration lengths of the fibrin sealant with the different formulations are listed below in Table 2.

The target in data set [2] is T1, thrombin. The data set is described as follows: Drop test model after freeze and thaw (F&T) of dyed thrombin. The format is biochemical. Details: 5 ml of a thrombin solution 5 folds diluted (final: 200 IU/ml). The method, then:
as §1
Human thrombin was formulated with methylene blue, crystal violet, bromothymol blue or riboflavin at final concentrations of 0.005-0.1%. The different formulations were fast frozen to −35° C. and then thawed. The effect of the freeze and thaw procedure on thrombin clotting activity was evaluated using the drop test model (migration time assay as in Example 2).

In data set [3] the target is T1, thrombin. The data set is described as follows: Thrombin clotting activity of dyed thrombin formulations (modified European Pharmacopeia Assay 0903/1997). It counts as biochemical. The arrangement: measuring thrombin clotting activity in the different formulations. The method, then:
The present study was aimed to determine the effect of dye addition to the fibrin glue formulation on thrombin activity. […] The compatibility of the dyes with thrombin was tested by measuring thrombin clotting activity in the different formulations according to the following modified, European Pharmacopeia Assay (0903/1997), procedure.
(§2) Briefly, standard solution of thrombin (4, 6, 8 and 10 IU/ml) or the test sample were incubated for 2 minutes at 30° C. Then 40 μl thrombin solution of each solution were mixed with 160 μl fibrinogen solution (0.1%; Enzyme research; cat No FIB1 2800L) and clotting time was measured. A calibration curve of log clotting times vs. log thrombin concentration was plotted using the standards. Thrombin activity in the different formulations was determined by the clotting time obtained (calculated automatically by a clotting machine, interpolated from the calibration curve and multiplied by the dilution factor).

Data set [4] addresses T1, thrombin. The data set is described as follows: Thrombin clotting activity of dyed thrombin with or without exposure to day light. It counts as biochemical. Details: measuring thrombin clotting activity in the different formulations. Conditions: 0.02% dye in thrombin solution, uncovered, 6 hours day light. Here is the method: as §2
In the adhesion prevention indications the dye may be added to the thrombin component prior to mixing it with BAC. The present experiment was carried out to assess the effect of visualization agent addition to thrombin solution on thrombin clotting activity. Two dyes were evaluated: Indigo Carmine (IC) and Methylene Blue (MB). […] The effect of the dyes on thrombin activity with or without exposure to day light was assessed. The thrombin clotting activity was measured as indicated above in Example 1. […] The samples were mixed with the same fibrinogen solution and the thrombin activity was calculated from the calibration curve. […]
Thrombin activity and the color intensity (OD of IC at 610 nm and of MB at 663 nm) were measured at TO and after exposure to day light for 6 hours. […]

Data set [5] is described as follows: Solubility of indigo carmine in thrombin solution by visual inspection. The format is physicochemical. The method, then:
The present example was aimed to determine the maximal solubility of indigo carmine in the thrombin component of the fibrin sealant. Thrombin final container (Omrix, 1,000 IU/ml, 5 ml) was mixed with 1% indigo carmine (dissolved in purified water) to a final concentration of 0.2, 0.21, 0.22, 0.25 or 0.3 mg/ml. The prepared solutions were mixed on a roller for 30 min at room temperature and the solubility limit of the dye was determined by visual inspection.

Where [6] appears, read: dye concentration within the thrombin component 0.1%.
[7] abbreviates: dye concentration within the thrombin component 0.2%.
Setting [8] is: dye concentration within the thrombin component 0.01%.
Setting [9] is: dye concentration within the thrombin component 0.05%.
The mark [10] stands for this setting: dye concentration within the thrombin component 0.005%.
The mark [11] stands for this setting: dye concentration within the thrombin component 0.02%.
Where [12] appears, read: dye 0.005% in thrombin component.

SMILES strings stand for the structures.

For the compound `CN(C)c1ccc2nc3ccc(=[N+](C)C)cc-3sc2c1` [Methylene Blue], the Migration length at thrombin [1] (setting [6]) is given as 10.7 cm; on thrombin [1] (setting [7]) it was 14.3 cm; at thrombin [2] (dye 0.1% in thrombin component), 8.4 cm. The Recovered activity at thrombin [3] (setting [8]) turned out to be 92%; on thrombin [3] (setting [9]), 97%; on thrombin [3] (setting [6]), 90%; on thrombin [3] (setting [7]), 89%. For the same compound, the “Thrombin Activity” value on thrombin [3] (setting [8]) is 1018 IU/ml; at thrombin [3] (setting [9]), 1070 IU/ml; at thrombin [3] (setting [6]) it was 991 IU/ml; on thrombin [3] (setting [7]), 978 IU/ml. Further, at thrombin [4], the “reduction in thrombin activity” value is “about 50%”.
Turning to `O=C1/C(=C2\Nc3ccc(S(=O)(=O)O)cc3C2=O)Nc2ccc(S(=O)(=O)O)cc21` [indigo carmine, Indigotindisulfonate sodium], the “effect of storage at 2-8 °C” value in data set [5] (0.02% indigo carmine dyed thrombin solution, about 30 min at 2-8 °C) is given as “sedimentation”. Moreover, in data set [5] (0.02% indigo carmine dyed thrombin solution, after over night incubation at 2-8 °C), the “effect of incubation at room temperature after refrigeration” value is recorded as “re-dissolution of the particulate sample”. In data set [5] (0.21, 0.22, 0.25 and 0.3 mg/ml in thrombin solution), the “result of visual inspection above the solubility limit” value is recorded as “aggregate formation”. Further, the “concentration at which complete dissolution of the sample was obtained” value in data set [5] (thrombin final container 1,000 IU/ml, 30 min on roller at room temperature) was 200 µg/mL.
Regarding `Cc1cc2nc3c(=O)[nH]c(=O)nc-3n(C[C@H](O)[C@H](O)[C@H](O)CO)c2cc1C` [Riboflavin], the Migration length at thrombin [1] (setting [10]) is 11.5 cm; at thrombin [1] (setting [8]) it was 13.3 cm; on thrombin [1] (setting [11]) it was 22.9 cm; at thrombin [2] (setting [12]) it was 19.8 cm.
In the case of `CN(C)c1ccc(C(=C2C=CC(=[N+](C)C)C=C2)c2ccc(N(C)C)cc2)cc1` [Crystal Violet], the Migration length on thrombin [1] (setting [10]) is listed as 12.1 cm; at thrombin [1] (setting [8]), 23.9 cm; at thrombin [1] (setting [9]), >25 cm; on thrombin [2] (setting [12]) it was 16.3 cm. For the same compound, the Recovered activity at thrombin [3] (setting [8]) was found to be 106%; on thrombin [3] (setting [9]) it was 94%; on thrombin [3] (setting [6]), 49%; on thrombin [3] (setting [7]), 22%. The “Thrombin Activity” value was determined as 1125 IU/ml on thrombin [3] (setting [8]), 995 IU/ml on thrombin [3] (setting [9]), 516 IU/ml on thrombin [3] (setting [6]) and 234 IU/ml at thrombin [3] (setting [7]).
Regarding `Cc1c(C2(c3cc(C(C)C)c(O)c(Br)c3C)OS(=O)(=O)c3ccccc32)cc(C(C)C)c(O)c1Br` [Bromothymol Blue], the Migration length at thrombin [1] (setting [8]) is 9.7 cm; at thrombin [1] (setting [11]), 11.9 cm; at thrombin [2] (dye 0.02% in thrombin component) it was >25 cm.
With `CN(C)c1ccc(N=Nc2ccc(S(=O)(=O)[O-])cc2)cc1.[Na+]` [Methyl Orange, Methyl Orange Sodium Salt], the Migration length on thrombin [1] (setting [10]) is on record as 8.26 cm; at thrombin [1] (setting [8]), 7.6 cm.
In the case of `CN(C)c1ccc(/N=N/c2ccccc2C(=O)O)cc1` [Methyl Red, Methyl red], the Migration length on thrombin [1] (dye dilution 01:26) is 12.4 cm; at thrombin [1] (dye dilution 01:51), 10.2 cm.
